Tests used:
Format in all cases: physicochemical
[1] = Test Example 3: dependence of stability on the amount of lactose added
Procedure: (§1) 10 mg of Compound (II) and, as a stabilizer, 100 mg of lactose or 9 mg of sodium chloride were dissolved completely in 1 ml of water. The resulting solutions were lyophilized and maintained at 70° C. in glass vials. Nine days after, the resulting compositions were tested on their appearance, the residual amount of Compound (II), and others. As a control, used was a solution of Compound (II) without any stabilizers.
Dependence of the Stability of Lyophilized Compositions of Compound (II) upon the Amount of Lactose Added
Tests were carried out in the same manner as in Test example 1 except that 20 mg, 50 mg, 100 mg or 200 mg of lactose were added as a stabilizer. […] Incidentally, it took 15 seconds to reconstitute the compositions in 1 ml of water.

[2] = Test Example 7: dependence of stability on the water content of the composition; conditions: 10 mg Compound (II) + 50 mg lactose
Procedure: Dependence of the Stability of Lyophilized Compositions of Compound (II) upon the Water Content of the Composition
10 mg of Compound (II) and, as a stabilizer, 50 mg of lactose were dissolved completely in 1 ml of water. The resulting solutions were lyophilized and maintained at 70° C. in glass vials. Nine days after, the resulting compositions were tested on their pH, their water content and the residual amount of Compound (II).

[3] = Test Example 4: stability of lyophilized compositions of 200 mg of lactose and Compound (II) in vial
[4] = Test Example 2: stability with maltose, sucrose or glucose as stabilizer
Procedure: as §1
The similar tests were conducted in the same manner as in Test Example 1 except that 100 mg of maltose, 50 mg of sucrose or 50 mg of glucose was used as a stabilizer.

[5] = 10 mg Compound (II) + 20 mg lactose, 0 hours
[6] = 10 mg Compound (II) + 20 mg lactose, after 3 months at 40° C. and 75% humidity
[7] = 10 mg Compound (II) + 20 mg lactose, after 9 days at 70° C.
[8] = 10 mg Compound (II) + 50 mg lactose, 0 hours
[9] = 10 mg Compound (II) + 50 mg lactose, after 3 months at 40° C. and 75% humidity
[10] = 10 mg Compound (II) + 50 mg lactose, after 9 days at 70° C.
[11] = 10 mg Compound (II) + 100 mg lactose, 0 hours
[12] = 10 mg Compound (II) + 100 mg lactose, after 3 months at 40° C. and 75% humidity
[13] = 10 mg Compound (II) + 100 mg lactose, after 9 days at 70° C.
[14] = 10 mg Compound (II) + 200 mg lactose, 0 hours
[15] = 10 mg Compound (II) + 200 mg lactose, after 3 months at 40° C. and 75% humidity
[16] = 10 mg Compound (II) + 200 mg lactose, after 9 days at 70° C.
[17] = water content at 0 hours 0.9%, after 9 days at 70° C.
[18] = water content at 0 hours 1.4%, after 9 days at 70° C.
[19] = water content at 0 hours 2.6%, after 9 days at 70° C.
[20] = water content at 0 hours 3.4%, after 9 days at 70° C.
[21] = water content at 0 hours 5.1%, after 9 days at 70° C.
[22] = 25 mg Compound (II) + 200 mg lactose, after 3 months at 40° C. and 75% humidity
[23] = 10 mg Compound (II) + glucose (50 mg), 0 hours
[24] = 10 mg Compound (II) + glucose (50 mg), after 9 days at 70° C.
[25] = 10 mg Compound (II) + maltose (100 mg), 0 hours
[26] = 10 mg Compound (II) + maltose (100 mg), after 9 days at 70° C.
[27] = 10 mg Compound (II) + sucrose (50 mg), 0 hours
[28] = 10 mg Compound (II) + sucrose (50 mg), after 9 days at 70° C.
[29] = 10 mg Compound (II), control: nil stabilizer, 0 hours
[30] = 10 mg Compound (II), control: nil stabilizer, after 9 days at 70° C.

SMILES: CCCCCOc1ccc(-c2cc(-c3ccc(C(=O)NC4CC(O)C(O)NC(=O)C5C(O)C(C)CN5C(=O)C(C(O)CC(N)=O)NC(=O)C(C(O)C(O)c5ccc(O)c(OS(=O)(=O)[O-])c5)NC(=O)C5CC(O)CN5C(=O)C(C(C)O)NC4=O)cc3)no2)cc1.[Na+] (centres unmarked) [Compound (II)]
- Clarity of reconstituted solution in 1 ml of water [1, 5]: Clear
- Color of reconstituted solution in 1 ml of water [1, 5]: Colorless
- Residual amount [1, 5]: 100.0%
- Total impurities [1, 5]: 3.44%
- Water content [1, 5]: 1.2%
- pH of reconstituted solution in 1 ml of water [1, 5]: 6.09
- Clarity of reconstituted solution in 1 ml of water [1, 6]: Clear
- Color of reconstituted solution in 1 ml of water [1, 6]: Colorless
- Residual amount [1, 6]: 100.0%
- Total impurities [1, 6]: 3.99%
- pH of reconstituted solution in 1 ml of water [1, 6]: 6.57
- Clarity of reconstituted solution in 1 ml of water [1, 7]: Not clear
- Color of reconstituted solution in 1 ml of water [1, 7]: White
- Residual amount [1, 7]: 88.09%
- Total impurities [1, 7]: 12.3%
- pH of reconstituted solution in 1 ml of water [1, 7]: 3.03
- Clarity of reconstituted solution in 1 ml of water [1, 8]: Clear
- Color of reconstituted solution in 1 ml of water [1, 8]: Colorless
- Residual amount [1, 8]: 100.0%
- Total impurities [1, 8]: 3.32%
- Water content [1, 8]: 0.5%
- pH of reconstituted solution in 1 ml of water [1, 8]: 6.57
- Appearance [1, 9]: White mass
- Clarity of reconstituted solution in 1 ml of water [1, 9]: Clear
- Color of reconstituted solution in 1 ml of water [1, 9]: Colorless
- Residual amount [1, 9]: 99.8%
- Total impurities [1, 9]: 4.21%
- Clarity of reconstituted solution in 1 ml of water [1, 10]: Clear
- Color of reconstituted solution in 1 ml of water [1, 10]: Colorless
- Residual amount [1, 10]: 96.7%
- Total impurities [1, 10]: 7.37%
- pH of reconstituted solution in 1 ml of water [1, 10]: 5.56
- Clarity of reconstituted solution in 1 ml of water [1, 11]: Clear
- Color of reconstituted solution in 1 ml of water [1, 11]: Colorless
- Residual amount [1, 11]: 100.0%
- Total impurities [1, 11]: 3.43%
- Water content [1, 11]: 0.3%
- pH of reconstituted solution in 1 ml of water [1, 11]: 6.58
- Appearance [1, 12]: White mass
- Color of reconstituted solution in 1 ml of water [1, 12]: Colorless
- Residual amount [1, 12]: 99.6%
- Total impurities [1, 12]: 3.96%
- pH of reconstituted solution in 1 ml of water [1, 12]: 5.80
- Clarity of reconstituted solution in 1 ml of water [1, 13]: Clear
- Color of reconstituted solution in 1 ml of water [1, 13]: Colorless
- Residual amount [1, 13]: 96.7%
- Total impurities [1, 13]: 7.08%
- pH of reconstituted solution in 1 ml of water [1, 13]: 6.08
- Clarity of reconstituted solution in 1 ml of water [1, 14]: Clear
- Color of reconstituted solution in 1 ml of water [1, 14]: Colorless
- Residual amount [1, 14]: 100.0%
- Total impurities [1, 14]: 3.40%
- Water content [1, 14]: 0.3%
- pH of reconstituted solution in 1 ml of water [1, 14]: 6.78
- Appearance [1, 15]: White mass
- Clarity of reconstituted solution in 1 ml of water [1, 15]: Clear
- Color of reconstituted solution in 1 ml of water [1, 15]: Colorless
- Residual amount [1, 15]: 99.6%
- Total impurities [1, 15]: 4.35%
- pH of reconstituted solution in 1 ml of water [1, 15]: 5.36
- Clarity of reconstituted solution in 1 ml of water [1, 16]: Clear
- Color of reconstituted solution in 1 ml of water [1, 16]: Colorless
- Residual amount [1, 16]: 96.1%
- Total impurities [1, 16]: 7.30%
- pH of reconstituted solution in 1 ml of water [1, 16]: 5.70
- Time to reconstitute the compositions in 1 ml of water ([1]; 10 mg Compound (II) + 20, 50, 100 or 200 mg lactose): 15 s
- Stability of lyophilized compositions (conclusion from Table 3) ([1]; 10 mg of Compound (II) and various amount of lactose): no problem in their stability
- pH of reconstituted solution in 1 ml of water ([2]; all water contents 0.9 to 5.1%, 0 hours): 7.1
- Residual amount [2, 17]: 97.6%
- Water content [2, 17]: 2.5%
- pH of reconstituted solution in 1 ml of water [2, 17]: 7.5
- Residual amount [2, 18]: 98.1%
- Water content [2, 18]: 2.9%
- pH of reconstituted solution in 1 ml of water [2, 18]: 7.1
- Residual amount [2, 19]: 97.1%
- Water content [2, 19]: 3.6%
- pH of reconstituted solution in 1 ml of water [2, 19]: 6.8
- Residual amount [2, 20]: 92.7%
- Water content [2, 20]: 4.3%
- pH of reconstituted solution in 1 ml of water [2, 20]: 6.8
- Residual amount [2, 21]: 18.3%
- Water content [2, 21]: 5.4%
- pH of reconstituted solution in 1 ml of water [2, 21]: 3.5
- Residual amount [3, 22]: 101.2%
- pH of reconstituted solution in 5 ml of purified water [3, 22]: 6.14
- Total impurities ([3]; 50 mg Compound (II) + 200 mg lactose, after 21 days at 60° C.): 3.68%
- Residual amount ([3]; 75 mg Compound (II) + 200 mg lactose, after 21 days at 60° C.): 97.7%
- pH of reconstituted solution in 5 ml of purified water ([3]; 100 mg Compound (II) + 200 mg lactose, after 3 months at 40° C. and 75% humidity): 5.85
- Appearance [4, 23]: White melt
- Residual amount [4, 23]: 100%
- Water content [4, 23]: 4.3%
- pH of reconstituted solution in 1 ml of water [4, 23]: 6.9
- Appearance [4, 24]: Brown melt
- Residual amount [4, 24]: 1.1%
- pH of reconstituted solution in 1 ml of water [4, 24]: 3.6
- Appearance [4, 25]: White mass
- Residual amount [4, 25]: 100.0%
- Water content [4, 25]: 0.9%
- pH of reconstituted solution in 1 ml of water [4, 25]: 7.3
- Appearance [4, 26]: White mass
- Residual amount [4, 26]: 98.6%
- pH of reconstituted solution in 1 ml of water [4, 26]: 6.7
- Appearance [4, 27]: White mass
- Residual amount [4, 27]: 100.0%
- Water content [4, 27]: 1.1%
- pH of reconstituted solution in 1 ml of water [4, 27]: 6.9
- Appearance [4, 28]: White melt
- Residual amount [4, 28]: 82.4%
- pH of reconstituted solution in 1 ml of water [4, 28]: 7.0
- Appearance [4, 29]: White mass
- Residual amount [4, 29]: 100.0%
- Water content [4, 29]: 3.3%
- pH of reconstituted solution in 1 ml of water [4, 29]: 6.8
- Appearance [4, 30]: White mass
- Residual amount [4, 30]: <75.0%
- pH of reconstituted solution in 1 ml of water [4, 30]: 5.4
